Data as given in patent EP2948433B1, “ATGLISTATIN AS LIPASE INHIBITOR” (Technische Universität Graz, priority 2013, dated 2014).

Biological target: T1, recombinant ATGL (Mus musculus, UniProt Q8BJ56)
T1 construct: Strep-tag; made in house; host or cells: E. coli (XL-1), vector pASK-IBA5+; crude lysate supernatant, not purified
T1 sequence (Q8BJ56 1-486): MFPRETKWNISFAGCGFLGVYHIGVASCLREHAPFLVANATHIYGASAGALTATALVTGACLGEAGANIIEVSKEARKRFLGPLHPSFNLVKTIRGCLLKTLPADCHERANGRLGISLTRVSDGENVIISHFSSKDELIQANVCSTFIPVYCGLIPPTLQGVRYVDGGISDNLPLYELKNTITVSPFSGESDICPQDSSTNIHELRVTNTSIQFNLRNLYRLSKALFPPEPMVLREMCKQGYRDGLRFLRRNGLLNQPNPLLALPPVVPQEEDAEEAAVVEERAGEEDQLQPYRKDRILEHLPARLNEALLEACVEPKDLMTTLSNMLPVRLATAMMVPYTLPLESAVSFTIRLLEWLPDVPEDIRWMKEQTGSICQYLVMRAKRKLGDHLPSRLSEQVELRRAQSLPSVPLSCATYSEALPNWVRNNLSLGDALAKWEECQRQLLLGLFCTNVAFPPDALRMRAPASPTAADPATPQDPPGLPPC
Assay: TG hydrolase activity of E. coli lysates overexpressing recombinant strep-tagged ATGL and CGI-58, radiolabeled triolein substrate
Assay type: biochemical
Description: • Figure 1. Structure of compounds 1 to 3 (reference) and compound 4 (atglistatin) and effect on ATGL activity. For determination of lipase activity, lysates of E. coli overexpressing recombinant strep-tagged ATGL and CGI-58 were incubated with a substrate containing radiolabeled [9,10-3H(N)]-triolein. Subsequently, FA were extracted and quantified by liquid scintillation counting. Lysates of cells expressing empty vector were set as blank. Inhibitors were solubilized in DMSO and added at the indicated concentrations. DMSO alone was used as negative control. (A) Structure and IC50 values of compounds 1-4. (B) Dose-dependent inhibition of ATGL in the presence of compound 3 and 4. […] (C) Lineweaver-Burk plots for kinetic analysis of ATGL inhibition. Experiments were performed at varying concentrations of substrate (0.05 - 3 mM) in presence and absence of compound 4 (Atglistatin). […] Data are presented as mean +/-S.D. of triplicate determinations. Data for compound 4 are representative for at least three independent experiments. • Figure 2. Selectivity of Atglistatin. Lipase activity of ATGL, HSL, lipoprotein lipase, and pancreatic lipase was determined using triolein as substrate. MGL activity was detected in the presence of rac-(1,3)-monooleoylglycerol as substrate. Inhibitors were solubilized in DMSO and added at the indicated concentrations. DMSO alone was used as negative control. (A) Dose-dependent inhibition of TG hydrolase activity in WAT lysates obtained from wild-type and ATGL-ko mice. (B) Inhibition of TG hydrolase activity in wild-type WAT lysates by Atglistatin (40 µM) and by the HSL inhibitor Hi 76-0079 (20 µM). (C) Effect of Atglistatin on murine MGL (purified from E. coli), and murine HSL (overexpressed in COS-7 lysates) activity. (D) Effect of Atglistatin on purified bovine LPL (Sigma) and pancreatic lipase (from porcine pancreas, Sigma). Data are presented as mean +/- S.D. of triplicate determinations and are representative for at least three independent experiments (p < 0.05 **, p < 0.01; ***, p < 0.001). • Figure 3 Inhibition of lipolysis in 3T3-L1 adipocytes and WAT organ cultures. (A,B) Differentiated 3T3 cells were preincubated with the indicated concentrations of Atglistatin. Thereafter, the medium was replaced by DMEM containing 2% BSA (fatty acid free), 10 µM forskolin, in the presence or absence of inhibitors. The release of FA (A) and glycerol (B) in the media was determined using commercial kits. Basal FA and glycerol release (not shown) was barely detectable under the applied conditions. Data are presented as mean +/- SD and are representative for 2 independent experiments. (C-F) Effect of Atglistatin on WAT basal (C, D) and forskolin-stimulated (E, F) lipolysis. Adipose tissue pieces (∼15 mg, n=5 for each concentration) of wild-type mice were cultured for 8 h in DMEM containing 2 % FA-free BSA and the indicated concentrations of Atglistatin. Subsequently, the medium was replaced by identical fresh medium and samples were collected after incubation for another hour in the presence or in the absence of 10 µM forskolin. Atglistatin was solubilized in DMSO and DMSO alone was used as negative control. Data are presented as mean +/- S.D. (*, p < 0.05 **, p < 0.01; ***, p < 0.001). • Figure 4 Inhibition of lipolysis in vivo. […] At the indicated timepoints blood was taken retroorbitally and plasma parameters were measured using commercial kits. […] 8 h after gavage blood was taken retroorbitally and plasma parameters were measured using commercial kits. […]

CN(C)C(=O)Nc1cccc(-c2ccc(N(C)C)cc2)c1 [Atglistatin, atglistatin]
Ki: 500 ± 200 nM
mechanism of ATGL inhibition (increase in apparent Km, unchanged Vmax, substrate 0.05 - 3 mM): competitive inhibitor
IC50 (inhibition of the activity of recombinant ATGL): 700 nM
